Laboratory results published in patent publication US20260207535A1, “CRIBLAGE INHIBITEURS USP8” (COMMISSARIAT A L'ENERGIE ATOMIQUE ET AUX ENERGIES …, priority 2022, published 2026).
Where two headings read alike, the source gives them in different places.

Columns and labels:
AtT-20 pituitary cells = experiment: Inhibition of ACTH secretion in pituitary cells (ACTH EIA on supernatant); type: cell-based, mouse
Experimental: ACTH release (percent comparison to DMSO control). Briefly, 12,500 AtT-20 cells per well were seeded in a 96-well plate. After 24 hours exposure, cells were treated with each compound at the indicated final concentration, or with DMSO alone (control condition compound solvent) or with corticotropin releasing factor (indicated CRF) at 100 nM. After a 24-hour treatment, cell supernatants were collected and stored at −80° C., prior to quantification of ACTH concentration using ACTH chemiluminescent EIA kit (Phoenix Pharmaceuticals, Inc.). Determination of ACTH concentrations was based on the best-fitting ACTH standard curve and P values were calculated using one-way ANOVA, using Prism 9 software (GraphPad Software, Inc.) ns (P=0.12). **P<0.002. ***P<0.001. All compounds were tested in technical triplicates. One representative experiment out of three is presented.
FIG. 4: illustrates a decrease of ACTH secretion by AtT-20 cells after 24-hour treatment of halogenated salicylanilides. 12,500 AtT-20 cells per well were seeded in a 96-well plate. […] After a 24-hour treatment, cell supernatants were collected and stored at −80° C., prior to quantification of ACTH concentration using ACTH chemiluminescent EIA kit (Phoenix Pharmaceuticals, Inc.). Determination of ACTH concentrations was based on the best-fitting ACTH standard curve and P values were calculated by ordinary one-way ANOVA using Prism 6 software (GraphPad Software, Inc), ns (not significant), **** P<0.0001. Compounds were tested in technical triplicates.
12,500 AtT-20 cells per well were seeded in a 96-well plate. After 24 hours, cells were treated with compounds (corresponding chemical formula are indicated in Table 1) at 25 μM final concentration, or with DMSO alone (compound solvent). After a 24-hour treatment, cell supernatants were collected and stored at −80° C., prior to quantification of ACTH concentration using ACTH chemiluminescent EIA kit (Phoenix Pharmaceuticals, Inc.). Determination of ACTH concentrations was based on the best-fitting ACTH standard curve and P values were calculated by ordinary one-way ANOVA using Prism 6 software (GraphPad Software, Inc), ns (not significant), *P<0.05, ***P<0,0001. Compounds were tested in technical triplicates.
Mouse AtT-20 pituitary cell line were used as a powerful and well-characterized model to monitor ACTH secretion using an enzyme immunoassay (EIA) kit.
Mouse AtT-20 cells were obtained from the American Type Culture Collection and maintained on DMEM containing 10% fetal bovine serum, 100 μg/mL streptomycin and 100 U/mL penicillin at 37° C. with 5% CO2 after recovery from long-term storage on liquid nitrogen-vapor phase.
The ACTH secretion levels of AtT-20 cell culture was monitored on the supernatant of AtT-20 cells treated or not by increasing doses of compounds belonging to the family of halogenated salicylanilides chemicals.
1.25×10^4 AtT20 cells were seeded on polylysine-coated 96-well culture vessels on 150 μL of complete medium. After 24 hours, cells were treated with stock compounds to a final DMSO concentration of 0.5%. After 24 hours of treatment, cell culture supernatant was collected, cleared for 10 min at 1000×g at 4° C., diluted or not in assay buffer (Phoenix Peptide ACTH EIA EK-001-21) and frozen at −80° C. for subsequent processing according to the instructions of the kit's manufacturer.

AtT-20 cells = experiment: Cytotoxicity towards AtT-20 cells (PrestoBlue viability assay); settings: for AtT-20 cell viability (PrestoBlue assay) % of control (DMSO) at 25 μM Mean (SD): 24-hour exposure; for cytotoxicity on AtT-20 cells, in words (FIG. 6): 25 μM for 24 hours
Text: The AtT-20 cells viability was monitored in the conditions used to follow ACTH secretion. The viability of treated cells was concomitantly evaluated using a Cell Viability Reagent (monitoring of the cells' reducing capacity) (PrestoBlue® assay, Molecular Probes) with the aim to determine non-toxic doses of cell treatment.
After the collection of the supernatant sample for the ACTH assay in the previous step, cells were supplemented with the PrestoBlue™ cell viability reagent (Invitrogen™ A13261) at 10% final volume, and re-incubated at 37° C. for 30 minutes. Fluorescence was then read with a FLUOstar OPTIMA microplate reader.

[1] = molecular target: T1, Full length USP8 (USP8FL) (Homo sapiens, UniProt P40818); experiment: USP8FL (full length USP8) enzymatic inhibition, Ub-Rhodamine 110 hydrolysis in L-cysteine buffer; type: biochemical; settings: USP8 FL 75 nM, Ub-Rho 0.1 μM, L-cysteine buffer
T1 construct: purchased BostonBiochem E-520
T1 sequence (P40818 1-1118): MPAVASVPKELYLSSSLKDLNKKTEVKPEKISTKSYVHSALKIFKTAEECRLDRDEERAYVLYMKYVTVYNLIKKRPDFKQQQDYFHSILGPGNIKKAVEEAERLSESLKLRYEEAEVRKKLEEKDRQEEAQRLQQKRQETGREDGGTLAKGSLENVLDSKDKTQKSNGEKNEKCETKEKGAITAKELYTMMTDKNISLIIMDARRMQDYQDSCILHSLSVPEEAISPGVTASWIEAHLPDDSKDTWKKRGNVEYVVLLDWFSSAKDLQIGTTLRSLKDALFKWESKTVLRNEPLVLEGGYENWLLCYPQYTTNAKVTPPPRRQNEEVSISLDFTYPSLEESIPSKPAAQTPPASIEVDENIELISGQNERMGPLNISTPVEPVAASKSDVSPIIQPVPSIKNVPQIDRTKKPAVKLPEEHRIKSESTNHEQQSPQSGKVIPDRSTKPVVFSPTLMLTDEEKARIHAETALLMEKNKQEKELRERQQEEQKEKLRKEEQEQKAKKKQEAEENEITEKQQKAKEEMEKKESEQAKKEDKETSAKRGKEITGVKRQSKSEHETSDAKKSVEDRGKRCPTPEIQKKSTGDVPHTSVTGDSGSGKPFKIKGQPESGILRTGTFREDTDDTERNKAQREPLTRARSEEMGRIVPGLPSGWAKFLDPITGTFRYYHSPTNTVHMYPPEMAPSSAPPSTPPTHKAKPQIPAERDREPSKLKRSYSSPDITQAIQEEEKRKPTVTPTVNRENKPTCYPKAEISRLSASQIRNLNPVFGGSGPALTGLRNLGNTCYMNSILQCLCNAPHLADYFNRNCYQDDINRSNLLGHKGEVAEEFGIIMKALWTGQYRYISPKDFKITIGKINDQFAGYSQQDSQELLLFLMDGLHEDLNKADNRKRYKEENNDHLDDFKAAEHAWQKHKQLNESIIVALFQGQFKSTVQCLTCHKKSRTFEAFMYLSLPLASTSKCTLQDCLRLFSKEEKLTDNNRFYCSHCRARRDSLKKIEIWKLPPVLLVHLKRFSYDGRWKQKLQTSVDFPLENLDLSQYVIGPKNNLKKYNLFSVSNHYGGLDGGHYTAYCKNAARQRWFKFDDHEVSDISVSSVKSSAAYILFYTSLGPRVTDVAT
Experimental: USP8 FL (USP8 Full Length) was incubated at a concentration of 75 nM in the presence of Ub-Rho (UBIQUIGENT ref. 60-0117-050) at a final concentration of 0.1 μM, in conditions ensuring linearity of enzyme activity throughout the assay in a specific buffer. Compounds were added to the reaction mix at different doses just before the substrate. The enzymatic reaction kinetics were monitored by measuring fluorescence elicited by the hydrolysis of Ub-Rho over 30 min.
In this setup, an in-house purified catalytic domain of USP8 (USP8CD) was used at a concentration of 80 nM in the presence of the artificial substrate Ubiquitin-Rhodamine 110 (Ub-Rho) (ref: 60-0117-050 Ubiquigent) at a final concentration of 0.1 μM, in conditions ensuring linearity of enzyme activity throughout the assay incubation time. Enzymatic assay was performed in a Tris HCl buffer (40 mM Tris HCl pH 7.4, Ovalbumine 0.5 mg/ml, Cysteine HCl 5.5 mM). Compounds to be tested were added to the reaction mix and incubated with enzyme for 20 min, before the substrate. The enzymatic reaction kinetics were monitored by measuring fluorescence elicited by the hydrolysis of the peptidyl Ub-Rho over 30 minutes. The negative control was the solvent DMSO at 1%.
Full length USP8 (USPBFL) (BostonBiochem ref. E-520) were used at a concentration of 75 nM in the presence of a ubiquitin substrate, i.e., the Ub-Rhodamine 110 (Ub-Rho) (Ubiquigent ref. 60-0117-050) at a final concentration of 0.1 μM. Enzymatic assays were performed as described for USP8-CD except that USP-FL was used at a concentration of 75 nM. The compounds were used at a final concentration of 0.1, 1, 5, 10, 50 and 100 μM in DMSO 0.5%. The USP8 catalytic activity was monitored both before adding the substrate (TO) and after twenty minutes of incubation at room temperature (Final Time TF). The enzymatic reaction kinetics were monitored by measuring fluorescence elicited by the hydrolysis of the Ub-Rho bound over 30 minutes.

[2] = Mus musculus, AtT20, 25 μM, 24-hour treatment, AtT-20 supernatant, read-out: ACTH secretion % of control (DMSO) at 25 μM
[3] = read-out: USP8FL inhbition IC50 [μM] (CI: Confidence Interval)

IC50 [1, 3] [µM]	Compound	inhibition of ACTH at 25 μM, in words (FIG. 4, FIG. 5) (AtT-20 pituitary cells; 25 μM, 24-hour treatment)	AtT-20 cell viability (PrestoBlue assay) % of control (DMSO) at 25 μM Mean (SD) (AtT-20 cells)	activity at 25 µM (AtT-20 pituitary cells; [2]) [%]	other results
> 40	Cc1ccc(NC(=O)Cn2ccccc2=O)c(OCc2ccccc2)c1 [Z738998144]	ineffective	95.98 (15.33) %	90	
> 40	O=C(CSc1ccccc1F)Nc1cccc(OCc2ccccn2)c1 [Z393438700]	ineffective	101.1 (16.04) %	92	
> 40	O=C(NCc1cccc(OCc2ccccn2)c1)c1csc(Br)c1 [Z424433412]	ineffective	98.93 (14.69) %	80	inhibition at 25 µM (AtT-20 pituitary cells; Mus musculus, AtT20, 25 μM, 24-hour treatment, p<0.05): 20%

Continued, compound first:

Compound	IC50 [1, 3] [µM]	inhibition of ACTH at 25 μM, in words (FIG. 4, FIG. 5) (AtT-20 pituitary cells; 25 μM, 24-hour treatment)	AtT-20 cell viability (PrestoBlue assay) % of control (DMSO) at 25 μM Mean (SD) (AtT-20 cells)	activity at 25 µM (AtT-20 pituitary cells; [2]) [%]	other results
O=C(Nc1ccccc1)c1ccccc1O [Salicylanilide, reference compound]		ineffective	105.4 (14.77) %		activity at 25 µM (AtT-20 pituitary cells; Mus musculus, AtT20, 24 h, read-out: ACTH secretion % of control (DMSO) at 25 μM, 25 μM, 24-hour treatment, AtT-20 supernatant): 99%; IC50 ([1]; USP8FL inhbition IC50 [μM] (CI: Confidence Interval)): > 40 µM
O=C(Nc1cc(Cl)cc(Cl)c1)c1cc(I)cc(I)c1O [Amb8477462]	8.98	significant inhibition	67.96 (17.52) %	31	
O=C(Nc1cc(Cl)cc(Cl)c1O)c1c(O)c(Cl)cc(Cl)c1Cl [Oxyclozanide, reference compound]	7.68	significant inhibition	98.08 (14.38) %	41	
O=C(Nc1ccc(Cl)cc1)c1cc(I)cc(I)c1O [Amb1935028]	11.9	significant inhibition	58.81 (34.11) %	32	cytotoxicity on AtT-20 cells, in words (FIG. 6) (AtT-20 cells): partially cytotoxic
Cc1ccc(NC(=O)c2cc(Cl)ccc2O)cc1 [OSSL-122817]		ineffective		118	
Cc1ccc(C(=O)c2cc(NC(=O)c3cc(I)cc(I)c3O)ccc2Cl)cc1 [Amb4103735]	3.41	significant inhibition	109.4 (18.18) %	58	
O=C(Nc1ccc(Cl)cc1C(=O)c1ccccc1F)c1ccc(=O)[nH]c1 [Z220328740]	> 40	ineffective	102.9 (15.16) %		ACTH secretion % of control (DMSO) at 25 μM (AtT-20 pituitary cells; 25 μM, 24-hour treatment, AtT-20 supernatant): 82%
O=C(Nc1ccc(Oc2ccc(Cl)cc2)c(Cl)c1)c1cc(I)cc(I)c1O [Rafoxanide, reference compound]		significant inhibition			ACTH secretion % of control (DMSO) at 25 μM (AtT-20 pituitary cells; 25 μM, 24-hour treatment, AtT-20 supernatant, listed as Rafoxanide Amb2704313, 25 µM): 33%; ACTH secretion % of control (DMSO) at 25 μM (AtT-20 pituitary cells; 25 μM, 24-hour treatment, AtT-20 supernatant, listed as Rafoxanide MCE HY-17598, 25 µM): 57%; cytotoxicity on AtT-20 cells, in words (FIG. 6) (AtT-20 cells): partially cytotoxic; AtT-20 cell viability (PrestoBlue assay) % of control (DMSO) at 25 μM Mean (SD) (AtT-20 cells; listed as Rafoxanide Amb2704313): 39.30 (6.852) %; AtT-20 cell viability (PrestoBlue assay) % of control (DMSO) at 25 μM Mean (SD) (AtT-20 cells; listed as Rafoxanide MCE HY-17598): 56.15 (3.536) %
Cc1ccc(NC(=O)c2cc(I)cc(I)c2O)cc1 [Amb8477380]	14.6	significant inhibition	93.51 (11.59) %	66	
CC(=O)Oc1c(I)cc(I)cc1C(=O)Nc1ccc(Cl)cc1 [Clioxanide, reference compound]	33.2	significant inhibition	94.21 (12.30) %	57	
